Laboratory results from PubChem BioAssay AID248 (DTP/NCI, 2004).
Several values for one entry are separate records, joined by “and”; a condition that tells them apart may be missing. Identical values can stand only once. Toxic doses and inconclusive results are not listed. Cut-off read from the data, not from the text of the source: active = T/C of 150% or more; inactive = T/C below 125%.

Test system: L1210 leukemia ip in BDF1 mice, survival T/C
Test: NCI In Vivo Anticancer Drug Screen. Data for tumor model L1210 Leukemia (intraperitoneal) in B6D2F1 (BDF1) mice
Settings: endpoint: mean survival time, higher = longer survival
How it was run: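 Survival endpoint. Drug-treated group vs vehicle group, expressed as T divided by C. Tumor passaged by transplantation.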

[1] = dose: 100.0 mg/kg/injection, schedule: Q01DX001 (ip), vehicle: carboxymethylcellulose (CMC)
[2] = dose: 200.0 mg/kg/injection, schedule: Q01DX001 (ip), vehicle: carboxymethylcellulose (CMC)
[3] = dose: 400.0 mg/kg/injection, schedule: Q01DX001 (ip), vehicle: carboxymethylcellulose (CMC)
[4] = dose: 100.0 mg/kg/injection, schedule: Q04DX003 (ip), vehicle: saline
[5] = dose: 200.0 mg/kg/injection, schedule: Q04DX003 (ip), vehicle: saline
[6] = dose: 400.0 mg/kg/injection, schedule: Q04DX003 (ip), vehicle: saline
[7] = dose: 100.0 mg/kg/injection, schedule: Q01DX009 (ip), vehicle: Klucel (hydroxypropylcellulose) (HPC)
[8] = dose: 200.0 mg/kg/injection, schedule: Q01DX009 (ip), vehicle: Klucel (hydroxypropylcellulose) (HPC)
[9] = dose: 400.0 mg/kg/injection, schedule: Q01DX009 (ip), vehicle: Klucel (hydroxypropylcellulose) (HPC)
[10] = dose: 12.5 mg/kg/injection, schedule: Q04DX003 (ip), vehicle: saline
[11] = dose: 25.0 mg/kg/injection, schedule: Q01DX009 (ip), vehicle: Klucel (hydroxypropylcellulose) (HPC)
[12] = dose: 50.0 mg/kg/injection, schedule: Q01DX009 (ip), vehicle: Klucel (hydroxypropylcellulose) (HPC)
[13] = dose: 100.0 mg/kg/injection, schedule: Q04DX003 (ip), vehicle: Klucel (hydroxypropylcellulose) (HPC)
[14] = dose: 200.0 mg/kg/injection, schedule: Q04DX003 (ip), vehicle: Klucel (hydroxypropylcellulose) (HPC)
[15] = dose: 400.0 mg/kg/injection, schedule: Q04DX003 (ip), vehicle: Klucel (hydroxypropylcellulose) (HPC)
[16] = dose: 100.0 mg/kg/injection, schedule: Q01DX009 (ip), vehicle: saline with Tween-80
[17] = dose: 100.0 mg/kg/injection, schedule: Q04DX002 (ip), vehicle: Klucel (hydroxypropylcellulose) (HPC)
[18] = dose: 200.0 mg/kg/injection, schedule: Q04DX002 (ip), vehicle: Klucel (hydroxypropylcellulose) (HPC)
[19] = dose: 400.0 mg/kg/injection, schedule: Q04DX002 (ip), vehicle: Klucel (hydroxypropylcellulose) (HPC)

Measured: T/C

CN(C)c1ccc(C=Nc2cccc([N+](=O)[O-])c2)cc1
inactive: dose: 100.0 mg/kg/injection, schedule: Q01DX001 (ip), vehicle: Klucel (hydroxypropylcellulose) (HPC) 91 % of control | dose: 200.0 mg/kg/injection, schedule: Q01DX001 (ip), vehicle: Klucel (hydroxypropylcellulose) (HPC) 86 % of control | dose: 400.0 mg/kg/injection, schedule: Q01DX001 (ip), vehicle: Klucel (hydroxypropylcellulose) (HPC) 90 % of control

Nc1c(I)cc2c(c1I)Cc1cc([N+](=O)[O-])ccc1-2
inactive: [1] 106 % of control | [2] 103 % of control | [3] 103 % of control

CNC(=O)NC
inactive: [4] 94 % of control | [5] 102 % of control | [6] 94 % of control

CCOc1ccc2nc(C)sc2c1
inactive: dose: 100.0 mg/kg/injection, schedule: Q04DX003 (ip), vehicle: acetone 97 % of control | dose: 200.0 mg/kg/injection, schedule: Q04DX003 (ip), vehicle: acetone 95 % of control | dose: 400.0 mg/kg/injection, schedule: Q04DX003 (ip), vehicle: acetone 93 % of control

N#CCCN(C(=S)Nc1ccc(Cl)c(Cl)c1)C1CCCCC1
inactive: [7] 107 % of control | [8] 113 % of control | [9] 103 % of control

O=[N+]([O-])CCCl
inactive: dose: 2.5 mg/kg/injection, schedule: Q04DX003 (ip), vehicle: Klucel (hydroxypropylcellulose) (HPC) 104 % of control | dose: 5.0 mg/kg/injection, schedule: Q01DX009 (ip), vehicle: saline 105 % of control | dose: 5.0 mg/kg/injection, schedule: Q04DX003 (ip), vehicle: Klucel (hydroxypropylcellulose) (HPC) 103 % of control | dose: 10.0 mg/kg/injection, schedule: Q01DX009 (ip), vehicle: saline 106 % of control | dose: 10.0 mg/kg/injection, schedule: Q04DX003 (ip), vehicle: Klucel (hydroxypropylcellulose) (HPC) 95 % of control | dose: 20.0 mg/kg/injection, schedule: Q01DX009 (ip), vehicle: saline 117 % of control | dose: 20.0 mg/kg/injection, schedule: Q04DX003 (ip), vehicle: Klucel (hydroxypropylcellulose) (HPC) 89 % of control

CC(=O)CC(=O)Nc1ccc(C(=O)O)c(O)c1
inactive: [7] 93 % of control | [8] 87 % of control | [9] 93 % of control

NC1=N/C(=C/[N+](=O)[O-])c2ccccc21
inactive: dose: 6.25 mg/kg/injection, schedule: Q04DX003 (ip), vehicle: saline 93 % of control | [10] 96 % of control

COc1nn(O)cc(C)c1=N
inactive: dose: 25.0 mg/kg/injection, schedule: Q04DX002 (ip), vehicle: saline with Tween-80 92 % of control | dose: 100.0 mg/kg/injection, schedule: Q04DX002 (ip), vehicle: saline with Tween-80 96 % of control

OCc1nccn1Cc1ccccc1
inactive: dose: 25.0 mg/kg/injection, schedule: Q01DX009 (ip), vehicle: water 99 % of control | dose: 50.0 mg/kg/injection, schedule: Q01DX009 (ip), vehicle: water 100 % of control | dose: 100.0 mg/kg/injection, schedule: Q01DX009 (ip), vehicle: saline 97 % of control | dose: 100.0 mg/kg/injection, schedule: Q01DX009 (ip), vehicle: water 100 % of control | dose: 200.0 mg/kg/injection, schedule: Q01DX009 (ip), vehicle: saline 108 % of control | dose: 200.0 mg/kg/injection, schedule: Q01DX009 (ip), vehicle: water 106 % of control

CC(Cc1ccccc1)NC(=O)CCNNC(=O)c1ccncc1 (stereo unspecified)
inactive: dose: 12.5 mg/kg/injection, schedule: Q01DX009 (ip), vehicle: Klucel (hydroxypropylcellulose) (HPC) 96 % of control | [11] 100 % of control | [12] 103 % of control | dose: 50.0 mg/kg/injection, schedule: Q04DX003 (ip), vehicle: Klucel (hydroxypropylcellulose) (HPC) 98 % of control | [7] 100 % of control | [13] 96 % of control | [8] 91 % of control | [14] 88 % of control

Cn1c(=O)c2ccc(C(=O)O)cc2c(=O)n1C
inactive: [10] 97 % of control | dose: 25.0 mg/kg/injection, schedule: Q04DX003 (ip), vehicle: saline 98 % of control | dose: 50.0 mg/kg/injection, schedule: Q04DX003 (ip), vehicle: saline 103 % of control | [4] 106 % of control | [5] 92 % of control | [6] 98 % of control

CN(C)C1CCCCC1
inactive: [11] 105 % of control | [12] 100 % of control | [7] 114 % of control | [13] 117 % of control | [14] 101 % of control | [15] 96 % of control

COc1ccc(-c2ccc([N+](=O)[O-])cc2[N+](=O)[O-])cc1
inactive: [1] 105 % of control | [2] 110 % of control | [3] 105 % of control

O=C(CNC(=O)c1ccccc1)N/N=C/c1cccc([N+](=O)[O-])c1
inactive: dose: 25.0 mg/kg/injection, schedule: Q01DX009 (ip), vehicle: saline with Tween-80 95 % of control | dose: 50.0 mg/kg/injection, schedule: Q01DX009 (ip), vehicle: saline with Tween-80 90 % of control | [16] 88 % of control

O=C(C[n+]1ccccc1Br)c1cccc2ccccc12
inactive: dose: 9.38 mg/kg/injection, schedule: Q01DX001 (ip), vehicle: other 103 % of control

C/C=C\C=C\C(=O)O
inactive: [17] 97 % of control | [18] 94 % of control | [19] 103 % of control

CCn1cc(C(=O)O)c(=O)c2ccc(C)nc21
inactive: [13] 97 % of control | [14] 96 % of control | [15] 94 % of control

CCOC(=O)c1ccc(NC(=O)CCCCCCCCC(=O)Nc2ccc(C(=O)OCC)cc2)cc1
inactive: [17] 91 % of control | [18] 102 % of control | [19] 95 % of control

CCN(CC)CCCC(C)Nc1c2ccccc2nc2c(Cl)cccc12 (stereo unspecified)
inactive: dose: 20.0 mg/kg/injection, schedule: Q01DX Z (ip), vehicle: methylcellulose (MC) 100 % of control and 86 % of control | dose: 30.0 mg/kg/injection, schedule: Q01DX Z (ip), vehicle: methylcellulose (MC) 92 % of control and 87 % of control | dose: 45.0 mg/kg/injection, schedule: Q01DX Z (ip), vehicle: methylcellulose (MC) 95 % of control and 101 % of control | dose: 67.0 mg/kg/injection, schedule: Q01DX Z (ip), vehicle: methylcellulose (MC) 91 % of control | [13] 102 % of control

CCCCc1ccc(-n2cnc3c(=O)[nH]c(N)nc32)cc1
inactive: dose: 100.0 mg/kg/injection, schedule: Q04DX003 (ip), vehicle: saline with Tween-80 88 % of control | dose: 200.0 mg/kg/injection, schedule: Q04DX003 (ip), vehicle: saline with Tween-80 97 % of control

CCOC1=NN(c2ccccc2)C(=O)C1
inactive: [16] 104 % of control | dose: 200.0 mg/kg/injection, schedule: Q01DX009 (ip), vehicle: saline with Tween-80 101 % of control | dose: 400.0 mg/kg/injection, schedule: Q01DX009 (ip), vehicle: saline with Tween-80 97 % of control
